By Ki is commonly meant a measure of affinity in units of concentration, obtained from inhibition or displacement.

Where two headings read alike, the source gives them in different places.

These results are taken from paper PMC8689648, “Binding Affinity Determines Substrate Specificity and Enables Discovery of Substrates for N-Myristoyltransferases” (ACS Catalysis, 2021).

Assay [1] deals with T1, N-myristoyltransferase 1 (NMT1) (Homo sapiens, UniProt P30419).
T1 sequence (P30419 1-496): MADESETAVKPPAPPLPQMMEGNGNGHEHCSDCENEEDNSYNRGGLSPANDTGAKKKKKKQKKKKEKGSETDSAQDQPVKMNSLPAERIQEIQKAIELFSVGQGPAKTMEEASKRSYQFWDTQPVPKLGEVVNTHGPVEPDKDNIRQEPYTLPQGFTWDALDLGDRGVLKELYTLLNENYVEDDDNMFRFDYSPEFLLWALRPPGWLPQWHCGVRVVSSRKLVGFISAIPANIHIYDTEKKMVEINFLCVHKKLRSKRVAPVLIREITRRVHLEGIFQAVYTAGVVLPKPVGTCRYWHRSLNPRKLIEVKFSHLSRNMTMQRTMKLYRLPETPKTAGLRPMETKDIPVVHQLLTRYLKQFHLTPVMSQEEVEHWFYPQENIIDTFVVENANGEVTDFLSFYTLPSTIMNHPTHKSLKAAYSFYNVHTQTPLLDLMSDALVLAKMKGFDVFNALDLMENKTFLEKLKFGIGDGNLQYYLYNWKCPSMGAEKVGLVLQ
Description: steady-state kinetics with ARF6 peptide (HPLC, MS); Kia from ordered Bi-Bi global fit. The format is biochemical.

The target of assay [2] is T1, N-myristoyltransferase 1 (NMT1). Description: steady-state inhibition kinetics of myristoylation of ARF6 peptide (HPLC), recombinant NMT1. Type of assay: biochemical.
For assay [3] the target is unchanged. Description: steady-state inhibition kinetics of acetylation of ARF6 peptide (HPLC), recombinant NMT1. The format is biochemical.
Assay [4] addresses T2, human N-myristoyltransferase 1 (NMT1) (human) (UniProt P30419).
T2 sequence: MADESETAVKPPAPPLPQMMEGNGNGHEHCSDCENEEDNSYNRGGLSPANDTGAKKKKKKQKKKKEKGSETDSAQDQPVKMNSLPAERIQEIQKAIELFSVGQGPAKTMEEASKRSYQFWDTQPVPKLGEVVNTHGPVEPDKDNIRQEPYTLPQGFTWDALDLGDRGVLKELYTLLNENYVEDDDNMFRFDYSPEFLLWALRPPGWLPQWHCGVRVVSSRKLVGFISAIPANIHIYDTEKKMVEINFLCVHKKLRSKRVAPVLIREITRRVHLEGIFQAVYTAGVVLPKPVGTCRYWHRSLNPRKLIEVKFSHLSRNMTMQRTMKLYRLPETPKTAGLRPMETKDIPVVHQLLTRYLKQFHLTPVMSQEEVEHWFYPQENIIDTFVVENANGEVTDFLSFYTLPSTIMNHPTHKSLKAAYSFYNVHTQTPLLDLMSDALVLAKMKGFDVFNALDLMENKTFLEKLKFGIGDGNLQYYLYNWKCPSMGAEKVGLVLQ

In the case of `CC(=O)SCCNC(=O)CCNC(=O)[C@H](O)C(C)(C)COP(=O)(O)OP(=O)(O)OC[C@H]1O[C@@H](n2cnc3c(N)ncnc32)[C@H](O)[C@@H]1OP(=O)(O)O` [Ac-CoA, acetyl-CoA], in assay [1] (read-out: Kia), the Kd worked out at 2.4 ± 0.5 µM.
The molecule `CCCCCCCCCCCCCC(=O)SCCNC(=O)CCNC(=O)[C@H](O)C(C)(C)COP(=O)(O)OP(=O)(O)OC[C@H]1O[C@@H](n2cnc3c(N)ncnc32)[C@H](O)[C@@H]1OP(=O)(O)O` [Myr-CoA, myristoyl-CoA] gave a Kd in assay [1] of 0.2 ± 0.1 µM.
Regarding `CCCCCCCCCCCCCC(=O)CSCCNC(=O)CCNC(=O)[C@H](O)C(C)(C)COP(=O)(O)OP(=O)(O)OC[C@H]1O[C@@H](n2cnc3c(N)ncnc32)[C@H](O)[C@@H]1OP(=O)(O)O` [S-(2-oxo)pentadecyl-CoA], the Ki in assay [2] came out at 0.0147 ± 0.0022 µM.
`CC(=O)CSCCNC(=O)CCNC(=O)[C@H](O)C(C)(C)COP(=O)(O)OP(=O)(O)OC[C@H]1O[C@@H](n2cnc3c(N)ncnc32)[C@H](O)[C@@H]1OP(=O)(O)O` [S-acetonyl-CoA]: in assay [3], the Ki amounted to 10.1 ± 2.2 µM.
In assay [4], GKVLSKIFWW [ARF6 N-terminal peptide (…)] returned a Kpep (Michaelis constant Km for ARF6 peptide) of NMT1-catalysed acetylation, Ac-CoA as the first substrate; 50 mM TriCl pH 8.0, 37 °C of 40 μM and a Kpep (Michaelis constant Km for ARF6 peptide) of NMT1-catalysed myristoylation, Myr-CoA as the first substrate; 50 mM TriCl pH 8.0, 37 °C of 5 μM.
